We go through 7 compounds from patent publication EP0671905B1, “STABLE PROTEIN: PHOSPHOLIPID COMPOSITIONS AND METHODS” (Amgen Inc., priority 1993, dated 1995).

Series [1] is described as follows: Tryptophan fluorescence emission spectra of protein:lipid complexes. It is filed as physicochemical. The note with it: mole ratio lipid:rhG-CSF 100:1. The protocol:
There are two tryptophan residues in rhG-CSF that are quite sensitive to local environmental conditions. Therefore, analysis was performed to determine the rhG-CSF tryptophan fluorescence when the rhG-CSF is contacted with a liposome. […] An excellent review of tryptophan fluorescence analysis is […], by J. Lakowicz, Chap 11 (Plenum Press, New York, 1983).
Tryptophan fluorescence of the G-CSF:lipid complexes (as described above) was assayed by exciting the samples at 280 nm and while scanning the emission from 285 nm to 420 nm in 1nm increments at a rate of 1 nm/sec. The sample volume was 3 ml and the final concentration of G-CSF was 0.2 mg/ml for all samples. The lipid:G-CSF ratios varied. All fluorescence measurements were carried out using a PTI Alphascan fluorometer (South Brunswick, NJ). All measurements were performed at 25°C and this temperature was maintained through the use of a water-jacketed cuvette holder connected to a circulating water bath. Emission spectra were collected and analyzed using the data software provided by PTI.
In this example, the ability of rhG-CSF to interact with other phospholipids was determined using comparisons of F/FO intensity and emission maximums as described above. In each instance, the mole ratio of lipid:rhG-CSF was 100:1.
In this example, chemically modified G-CSF (pegylated G-CSF (PEG-G-CSF)) and G-CSF obtained as a product of eucaryotic host cell expression (CHO-G-CSF) were tested for their ability to interact with negatively charged lipid vesicles. For the CHO-G-CSF, the determinations were made using comparisons of F/FO intensity and emission maximums (as described in Example 1 above). In each instance, the mole ratio of lipid:protein was 100:1. For the PEG-G-CSF, the determination was based upon circular dichroism analysis.

Series [2] concerns murine bone marrow cells. Nature of the series: In vitro activity: G-CSF dependent uptake of [3H]-thymidine by bone marrow cells. Type of series: cell-based. The following applies: lipid mixed with rhG-CSF, lipid:protein ratio 100:1; control untreated rhG-CSF without lipid. The protocol:
In this example, the effect of the rhG-CSF:DOPG interaction as it relates to the biological activity of rhG-CSF was determined. The in vitro activity of rhG-CSF was assayed utilizing the G-CSF dependent uptake of [^3H]-thymidine by murine bone marrow cells as described in Zsebo et al., Immunobiology 172: 175-184 (1986). All activity assays were performed in triplicate. In vivo activity was determined by subcutaneous injection of hamsters (rhG-CSF dose of 100 µg/kg) and measurements of white blood cell (WBC) count.
After heating to 85°C for 10 minutes, rhG-CSF has undetectable activity and the protein precipitates. […] B. The ability of various lipids to stabilize rhG-CSF during freeze drying was also studied. Samples of rhG-CSF in combination with various lipids were freeze dried and assayed (as described above) for activity.

Series [3] is described as follows: Circular dichroism at 222 nm, thermal stability and temperature cycling. It is filed as physicochemical. The note with it: for effect on secondary structure of rhG-CSF (circular dichroism): 150:1 lipid:rhG-CSF ratio, heated to 95°C and cooled to 10°C; for thermal stability of GM-CSF (circular dichroism): lipid:GM-CSF ratio 17:1, PBS pH 7.0, heated to 90°C and cooled to 10°C.

In the case of `CCCCCCCCC=CCCCCCCCC(=O)OCC(COP(=O)(O)OCCNC(=O)CCCC(=O)O)OC(=O)CCCCCCCC=CCCCCCCCC` (centres unmarked) [NG-DOPE], the “insertion of rhG-CSF into lipid vesicles (F/FO and emission maximum)” value (“insertion of rhG-CSF into lipid vesicles” below) in series [1] is given as “improved insertion of the rhG-CSF than DOPE”.
On to `CCCCCCCCCCCCCC(=O)OC[C@H](COP(=O)([O-])OCC[N+](C)(C)C)OC(=O)CCCCCCCCCCCCC` [DMPC, reference compound], for which the “effect on emission maximum and fluorescence intensity of rhG-CSF” value in series [1] is “little if no effect”.
`CCCCCCCCCCCCCC(=O)OCC(COP(=O)(O)OCC(O)CO)OC(=O)CCCCCCCCCCCCC` (centres unmarked) [DMPG, dimyristoylphosphatidylglycerol]: the “insertion of rhG-CSF into lipid vesicles” value in series [1] was “can insert”. The “retention of rhG-CSF bioactivity after freeze drying” value (shortened to “retention … after freeze drying”) in series [2] is around 100%. For the same compound, in series [3], the “effect on secondary structure of rhG-CSF (circular dichroism)” value is reported as “stabilize the secondary structure of rhG-CSF” and the “thermal stability of GM-CSF (circular dichroism)” value is recorded as “recovery of secondary structure after heating”.
`CCCCCCCC/C=C\CCCCCCCC(=O)OC[C@H](COP(=O)(O)OCC(O)CO)OC(=O)CCCCCCC/C=C\CCCCCCCC` (some centres unmarked) [DOPG, dioleoylphosphatidylglycerol]: the “insertion of rhG-CSF into lipid vesicles” value in series [1] is listed as “can insert”. Besides, in series [2], the “retention … after freeze drying” value is on record as around 100%.
`CCCCCCCCCCCCCCCC(=O)OC[C@H](COP(=O)([O-])OCC[N+](C)(C)C)OC(=O)CCCCCCCCCCCCCCC` [DPPC, reference compound]: the “effect on emission maximum and fluorescence intensity of rhG-CSF” value in series [1] was “little if no effect”.
On the same count and under the same terms, in the case of `CCCCCCCC/C=C\CCCCCCCC(=O)OC[C@H](COP(=O)([O-])OCC[N+](C)(C)C)OC(=O)CCCCCCC/C=C\CCCCCCCC` [DOPC, reference compound] it was “little if no effect”.
As to `CCCCCCCCCCCCCCCC(=O)OCC(COP(=O)(O)OCC(O)CO)OC(=O)CCCCCCCCCCCCCCC` (centres unmarked) [DPPG, dipalmitoylphosphatidylglycerol], the “insertion of rhG-CSF into lipid vesicles” value in series [1] was “can insert”. Further, the “retention … after freeze drying” value in series [2] was around 100%. Besides, in series [3], the “effect on secondary structure of rhG-CSF (circular dichroism)” value is “stabilize the secondary structure of rhG-CSF” and the “thermal stability of GM-CSF (circular dichroism)” value is on record as “recovery of secondary structure after heating”.
